Assay results reported in patent US20220227728A1, “Microtubule-associated protein Tau imaging compounds for Alzheimer's disease and precursors thereof” (priority 2021, published 2022).
Entries after “also recorded” stand apart in the source; their conditions may differ.

Test system: microtubule-associated protein Tau
Experiment: nano PET/CT imaging in P301L gene transgenic mice and control mice
Assay type: in vivo
Conditions: 0.46 mCi by tail vein, 30 minutes of distribution
Description: FIG. 3 is an image of the microtubule-associated protein Tau compound 29 of the present invention in P301L gene transgenic mice and control mice using positron emission tomography (nano PET/CT) analysis, in which P301L gene transgenic mice (source: United States JACKSON Research Center) refers to the mutation of proline to leucine at codon 301 of the encoded microtubule-associated protein Tau. These types of mutations can accelerate the formation of neurofibrillary tangles. P301L gene transgenic mice and control mice were injected through the tail vein with 0.46 millicuries (mCi) of compound 29 of the present invention, and after 30 minutes of distribution, radiography was performed on the mice using a positron emission tomography scanner (BIOSCAN).
0.46 mCi of compound 29 was injected into P301L gene transgenic mice and control mice, and after 30 minutes of distribution nano-PET/CT was used for contrast imaging.

Compound: CC([18F])COc1ccc2cc(-n3cc4ccccc4c3)ncc2c1 (stereo not shown) [compound 29, [18F] 7-(2-fluoropropoxy)-3-(2H-isoindol-2-yl) isoquinoline]
- drug accumulation (absorption) in the brain of P301L gene transgenic mice versus control mice: significantly higher than that of the control mice; also recorded: significantly greater than that of control mice
